These are literature values, as cited in PubChem BioAssay AID1259409 (Chemical Carcinogenesis Research Information System (CCRIS), 2018).

This data set has as its system rodent chemically induced tumor inhibition, incidence and multiplicity. Put plainly: CCRIS tumor inhibitor studies.

As for `O=c1ccc2ccccc2o1`, the “tumour outcome (control, treated, inhibition, significance)” value reads like this: (Carcinogen: 7,12-DIMETHYLBENZ(A)ANTHRACENE, 57-97-6, Dose [Inhibitor]: 0.034 MMOL/G IN DIET BEGINNING 1 D PRIOR TO CARCINOGEN DOSE AND CONTINUING FOR 8 D (STUDY DURATION: 23 WK), Route [Inhibitor]: ORAL, Species: RAT, Strain/Sex: SPRAGUE-DAWLEY/FEMALE, Target Tissue: Type of Lesion: MAMMARY GLAND: TUMOR, Dose [Carcinogen]: 12 MG IN 1.0 ML OLIVE OIL ONCE, Promoter: NONE USED) 86%, 31%, 64%, p<0.01; (Carcinogen: 7,12-DIMETHYLBENZ[A]ANTHRACENE, 57-97-6, Dose [Inhibitor]: 0.068 MMOL/G IN DIET BEGINNING 7 D PRIOR TO CARCINOGEN DOSE AND CONTINUING FOR 8 D (STUDY DURATION: 23 WK), Route [Inhibitor]: ORAL, Species: RAT, Strain/Sex: SPRAGUE-DAWLEY/FEMALE, Target Tissue: Type of Lesion: MAMMARY GLAND: TUMOR, Dose [Carcinogen]: 12 MG IN 1.0 ML OLIVE OIL, Promoter: NONE USED) 86%, 14%, 84%, p<0.01,; (Carcinogen: BENZO[A]PYRENE, 50-32-8, Dose [Inhibitor]: 0.068 MMOL/G IN DIET FOR 5 WK BEGINNING 1 WK PRIOR TO CARCINOGEN TREATMENT (STUDY DURATION: 21 WK), Route [Inhibitor]: ORAL, Species: MOUSE, Strain/Sex: ICR/FEMALE, Target Tissue: Type of Lesion: FORESTOMACH: TUMOR, Dose [Carcinogen]: 1 MG IN 0.2 ML CORN OIL, 2/WK FOR 4 WK, Promoter: NONE USED) 100%, 61%, 39%, p<0.05.
`NC(Cc1c[nH]c2ccccc12)C(=O)O` (configuration not stated): the “tumour outcome (control, treated, inhibition, significance)” value (Carcinogen: N-BUTYL-N-(4-HYDROXYBUTYL)NITROSAMINE, 3817-11-6, Dose [Inhibitor]: 5% DIET DAILY FOR 34 WK STARTING AT COMPLETION OF CARCINOGEN TREATMENT (STUDY DURATION: 38 WK), Route [Inhibitor]: ORAL, Species: RAT, Strain/Sex: F344/MALE, Target Tissue: Type of Lesion: URINARY BLADDER: PAPILLOMA, Dose [Carcinogen]: 0.01% IN DRINKING WATER FOR 4 WK, Promoter: NONE USED) is 33%, 27%, 18%, not significant.
Regarding `S=C=NCCCCCc1ccccc1`, the “tumour outcome (control, treated, inhibition, significance)” value (Carcinogen: 4-(METHYLNITROSAMINO)-1-(3-PYRIDYL)-1-BUTANONE, 64091-91-4, Dose [Inhibitor]: 0, 0.2 UMOL 1/D FOR 4 D ADMINISTERED PRIOR TO CARCINOGEN TREATMENT (STUDY DURATION: 116 D), Route [Inhibitor]: GAVAGE, Species: MOUSE, Strain/Sex: STRAIN A, Target Tissue: Type of Lesion: LUNG: ADENOMA, Dose [Carcinogen]: 10 UMOL ONCE 2 HR AFTER FINAL DOSE OF INHIBITOR, Promoter: NONE USED) is recorded as 100%, 100%, 0%, not significant; the “tumour outcome (control, treated, inhibition, significance)” value (Carcinogen: 4-(METHYLNITROSAMINO)-1-(3-PYRIDYL)-1-BUTANONE, 64091-91-4, Dose [Inhibitor]: 0, 1 UMOL 1/D FOR 4 D ADMINISTERED PRIOR TO CARCINOGEN TREATMENT (STUDY DURATION:116 D), Route [Inhibitor]: GAVAGE, Species: MOUSE, Strain/Sex: STRAIN A, Target Tissue: Type of Lesion: LUNG: ADENOMA, Dose [Carcinogen]: 10 UMOL ONCE 2 HR AFTER FINAL DOSE OF INHIBITOR, Promoter: NONE USED) is on record as 100%, 53%, 47%, p<0.05; the “tumour outcome (control, treated, inhibition, significance)” value (Carcinogen: 4-(METHYLNITROSAMINO)-1-(3-PYRIDYL)-1-BUTANONE, 64091-91-4, Dose [Inhibitor]: 0, 5 UMOL 1/D FOR 4 D ADMINISTERED PRIOR TO CARCINOGEN TREATMENT (STUDY DURATION: 116 D), Route [Inhibitor]: GAVAGE, Species: MOUSE, Strain/Sex: STRAIN A, Target Tissue: Type of Lesion: LUNG: ADENOMA, Dose [Carcinogen]: 10 UMOL ONCE 2 HR AFTER FINAL DOSE OF INHIBITOR, Promoter: NONE USED) was 100%, 25%, 75%, p<0.05.
With `COc1cc2c3cc1Oc1c(OC)c(OC)cc4c1[C@@H](Cc1ccc(O)c(c1)Oc1ccc(cc1)C[C@@H]3N(C)CC2)N(C)CC4`, the “tumour outcome (control, treated, inhibition, significance)” value (Carcinogen: 7,12-DIMETHYLBENZ[A]ANTHRACENE, 57-97-6, Dose [Inhibitor]: 0, 2 UMOL 2/WK 30 MIN PRIOR TO EACH PROMOTER DOSE BEGINNING 1 WK POST CARCINOGEN DOSE (STUDY DURATION: 18 WK), Route [Inhibitor]: DERMAL, Species: MOUSE, Strain/Sex: ICR/FEMALE, Target Tissue: Type of Lesion: SKIN: PAPILLOMA, Dose [Carcinogen]: 50 UG ONCE, Promoter: 12-O-TETRADECANOYLPHORBOL-13-ACETATE, 16561-29-8) was 100%, 20%, 80%, not calculated.
As to `CSC[C@H](N)C(=O)O`, the “tumour outcome (control, treated, inhibition, significance)” value was 22/25 (88%), 19/25 (76%), 14%, not significant (Carcinogen: 7,12-DIMETHYLBENZ[A]ANTHRACENE, 57-97-6, Dose [Inhibitor]: 0, 0.005 MOL/KG DIET BEGINNING 2 WK PRIOR TO CARCINOGEN AND CONTINUED FOR STUDY DURATION (STUDY DURATION: 25 WK), Route [Inhibitor]: ORAL, Species: RAT, Strain/Sex: CD-1/FEMALE, Target Tissue: Type of Lesion: MAMMARY GLAND: ADENOCARCINOMA, Dose [Carcinogen]: 10 MG ONCE, Promoter: NONE USED); 23/30 (77%), 14/30 (47%), 39%, p<0.05 (Carcinogen: 7,12-DIMETHYLBENZ[A]ANTHRACENE, 57-97-6, Dose [Inhibitor]: 0, 0.015 MOL/KG DIET BEGINNING 1 WK POST CARCINOGEN AND CONTINUED FOR STUDY DURATION (STUDY DURATION: 25 WK), Route [Inhibitor]: ORAL, Species: RAT, Strain/Sex: CD-1/FEMALE, Target Tissue: Type of Lesion: MAMMARY GLAND: ADENOCARCINOMA, Dose [Carcinogen]: 10 MG ONCE, Promoter: NONE USED); 23/30 (77%), 21/30 (70%), 9%, not significant (Carcinogen: 7,12-DIMETHYLBENZ[A]ANTHRACENE, 57-97-6, Dose [Inhibitor]: 0, 0.015 MOL/KG DIET BEGINNING 2 WK PRIOR TO CARCINOGEN AND CONTINUED 1 WK POST CARCINOGEN (STUDY DURATION: 25 WK), Route [Inhibitor]: ORAL, Species: RAT, Strain/Sex: CD-1/FEMALE, Target Tissue: Type of Lesion: MAMMARY GLAND: ADENOCARCINOMA, Dose [Carcinogen]: 10 MG ONCE, Promoter: NONE USED); 22/25 (88%), 13/25 (52%), 41%, p<0.05 (Carcinogen: 7,12-DIMETHYLBENZ[A]ANTHRACENE, 57-97-6, Dose [Inhibitor]: 0, 0.015 MOL/KG DIET BEGINNING 2 WK PRIOR TO CARCINOGEN AND CONTINUED FOR STUDY DURATION (STUDY DURATION: 25 WK), Route [Inhibitor]: ORAL, Species: RAT, Strain/Sex: CD-1/FEMALE, Target Tissue: Type of Lesion: MAMMARY GLAND: ADENOCARCINOMA, Dose [Carcinogen]: 10 MG ONCE, Promoter: NONE USED).
